Results reported in patent US9598387B2 (Southern Research Institute, priority 2012, dated 2017).

Tests used:
[1] = biological target: human D2-long dopamine receptor (Homo sapiens (Human), UniProt P14416); experiment: Radioligand binding (125I-IABN competition), D2; conditions: HEK cell membranes expressing human D2-long
Method: (§1) The affinities of the target compounds were determined using radioligand binding experiments. […] Competition curves were modeled for a single site. Data from competition dose-response curves were analyzed using Tablecurve program (Jandel). IC50 values were converted to equilibrium dissociation constants (Ki values) using the Cheng and Prusoff correction.

[2] = biological target: T1, human D3 dopamine receptor (Homo sapiens (Human), UniProt P35462); experiment: Radioligand binding (125I-IABN competition), D3; conditions: for Ki: 125I-IABN competition, HEK cell membranes expressing human D3; for D2/D3 (D3 selectivity ratio, D2 Ki/D3 Ki): calculated D2 Ki/D3 Ki
T1 sequence (P35462 whole entry): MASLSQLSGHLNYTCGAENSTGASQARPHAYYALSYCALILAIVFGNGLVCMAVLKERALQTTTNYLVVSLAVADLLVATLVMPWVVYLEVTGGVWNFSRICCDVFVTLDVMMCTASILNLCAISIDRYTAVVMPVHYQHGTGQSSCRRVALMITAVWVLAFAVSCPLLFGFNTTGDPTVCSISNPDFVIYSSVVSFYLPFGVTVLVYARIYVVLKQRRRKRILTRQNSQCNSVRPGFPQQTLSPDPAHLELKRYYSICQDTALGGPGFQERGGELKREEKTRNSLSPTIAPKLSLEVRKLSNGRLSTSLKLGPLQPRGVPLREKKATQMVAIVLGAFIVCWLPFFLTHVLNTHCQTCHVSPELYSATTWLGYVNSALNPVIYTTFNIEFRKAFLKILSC
Method: as §1

human D2 receptors = human D2 receptors (Homo sapiens (Human), UniProt P14416); experiment: D2 Mitogenesis Functional Assay (3H-thymidine uptake, CHOp-D2 cells); assay type: cell-based; conditions: for Emax at 10 µM: % maximum stimulation vs quinpirole (100%), read-out: D2 Agonist Emax; for IC50: inhibition of quinpirole (30 nM final) stimulation of mitogenesis, read-out: D2 Antagonist IC50
human D2 receptors, sequence (P14416 whole entry): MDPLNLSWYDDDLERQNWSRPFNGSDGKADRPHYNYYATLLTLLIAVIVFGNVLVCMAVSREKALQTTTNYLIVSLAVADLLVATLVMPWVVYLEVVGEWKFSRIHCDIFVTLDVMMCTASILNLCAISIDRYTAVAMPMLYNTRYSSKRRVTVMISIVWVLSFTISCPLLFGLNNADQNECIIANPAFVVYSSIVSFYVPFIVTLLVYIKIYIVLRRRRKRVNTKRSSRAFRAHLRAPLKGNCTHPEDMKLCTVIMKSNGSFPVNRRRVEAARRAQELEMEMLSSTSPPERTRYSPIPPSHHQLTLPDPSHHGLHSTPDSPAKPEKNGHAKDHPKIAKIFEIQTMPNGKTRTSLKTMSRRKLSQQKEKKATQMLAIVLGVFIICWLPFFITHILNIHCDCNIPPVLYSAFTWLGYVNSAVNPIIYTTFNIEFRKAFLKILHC
Method: (§2) These assays are based on ^3H-thymidine uptake by cells that are proliferating.
CHO cells expressing human D2 receptors (CHOp-D2 cells) were maintained in alpha-MEM with 10% FCS, 0.05% pen-strep, and 200 μg/mL of G418. […] The cells were incubated at 37° C. in alpha-MEM with 10% FCS. After 48-72 hours, the cells were rinsed twice with serum-free alpha-MEM and incubated for 24 hours at 37° C. Serial dilutions of test compounds were made by the Biomek robotics system in serum-free alpha-MEM. In the functional assay for agonism, the medium was removed and replaced with 100 μL of test compound in serum-free alpha-MEM. In the antagonist assay, the serial dilution of the putative antagonist test compound was added in 90 μL (1.1× of final concentration) and 300 nM quinpirole (30 nM final) was added in […]. After another 24-hour incubation at 37° C., 0.25 μCi of [^3H]thymidine in alpha-MEM supplemented with 10% FCS was added to each well and the plates were further incubated for 2 hours at 37° C. The cells were trypsinized by addition of 10× trypsin solution (1% trypsin in calcium-magnesium-free phosphate-buffered saline) and the plates were filtered and counted as usual. Quinpirole was run as an internal control and dopamine was included for comparative purposes. Butaclamol was run as the standard antagonist.

[3] = biological target: T1, human D3 dopamine receptor; experiment: Whole Cell Adenylyl Cyclase Assay, D3; assay type: cell-based; conditions: inhibition of forskolin (100 μM) stimulated cAMP, normalized to quinpirole; compound conc ≥10× Ki (per compound); mean ± S.E.M.
Method: The intrinsic activity of the compounds was evaluated by determining their ability to inhibit forskolin-dependent (100 μM) stimulation of adenylyl cyclase activity using a whole cell assay. A whole cell-cyclic AMP accumulation assay was performed with stably transfected HEK cells expressing human D2 or D3 dopamine receptors. This assay is an adaptation of an earlier published method (Su et al., Cyclic Nucleotide Res. 1976, 2, 257-285). Details regarding this method have been published (Chu, W. et al. Bioorg. Med. Chem. 2005, 13, 77-87; Taylor, M. et al. Synapse 2010, 64, 251-266). Confluent (60-80%) HEK cells transfected with recombinant D2-like dopamine receptors were grown in DMEM/10% fetal calf serum containing geneticin in […] flasks. The endogenous ATP pool is radioactively labeled by preincubating the cells in serum-free DMEM/25 mM Hepes medium containing 2 μCi/mL of [2,8-^3H]-adenine (20-Ci/mmol) in a 5% CO2 incubator at 37° C. for 75 min. The radioactive medium was removed by aspiration. Serum-free DMEM (5.6 mL) containing 25 mM HEPES, pH 7.4, and 0.1 mM of the phosphodiesterase inhibitor isobutylmethylxanthine was added to the flask. A […] aliquot of cells was removed and added to 50 μL of forskolin (100 μM) and 50 μL of test drug or quinpirole in DMEM-HEPES. The cells were incubated for 20 min at 37° C. (vortexing every 5 min). The reaction was terminated by the addition of 0.5 mL of 10% trichloroacetic acid (w/v) containing 1.0 mM unlabeled cyclic AMP as a recovery standard. Both the [^3H]-cyclic AMP and the [^3H]-ATP fractions were collected following separation using columns of Dowex AG-50W-X4 and alumina. The final yield of [^3H]-cyclic AMP is corrected for column recovery of unlabeled cyclic AMP determined spectrophotometrically (OD259). The results are reported as percent conversion of [^3H]-ATP into [^3H]-cyclic AMP. The values for the percent inhibition are reported as the actual percent of inhibition of the ^3H-cAMP accumulation relative to the assay performed in the absence of a test compound, minus basal activity. […] The percent maximum response is the value for the inhibition normalized to the value for the full agonist quinpirole.

D3R = D3R (Homo sapiens (Human), UniProt P35462); experiment: D3 Mitogenesis Functional Assay (3H-thymidine uptake, CHOp-D3 cells); assay type: cell-based; conditions: for Emax at 10 µM: % maximum stimulation vs quinpirole (100%), read-out: D3 Agonist Emax; for IC50: inhibition of quinpirole (30 nM final) stimulation of mitogenesis, read-out: D3 Antagonist IC50; for D3 Antagonist Imax: inhibition of quinpirole stimulation of mitogenesis
D3R, sequence (P35462 whole entry): as the sequence (P35462 whole entry) above
Method: as §2
CHO cells expressing human D3 receptors (CHOp-D3 cells) were maintained in alpha-MEM with 10% fetal bovine serum (FBS, Atlas Biologicals), 0.05% pen-strep, and 200 μg/ml of G418. […] The cells are incubated at 37° C. in alpha-MEM with 10% FBS. After 48-72 hours, the cells are rinsed twice with serum-free alpha-MEM and incubated for 24 hours at 37° C. Serial dilutions of test compounds were made by the Biomek robotics system in serum-free alpha-MEM. In the functional assay for agonism, the medium is removed and replaced with 100 μL of test compound in serum-free alpha-MEM. In the antagonist assay, the serial dilution of the putative antagonist test compound was added in 90 μL (1.1× of final concentration) and 300 nM quinpirole (30 nM final) was added in 10 uL. After another 16-hour incubation at 37° C., 0.25 μCi of [^3H]thymidine in alpha-MEM supplemented with 10% FBS was added to each well and the plates were further incubated for 2 hours at 37° C. The cells were trypsinized by addition of 10× trypsin solution (1% trypsin in calcium-magnesium-free phosphate-buffered saline) and the plates were filtered and counted as usual. Quinpirole was run as an internal control and dopamine was included for comparative purposes. Butaclamol was run as the standard antagonist. Data were analyzed using GraphPAD Prism and agonist potency was expressed as EC50 values or % stimulation and antagonist potency was expressed as IC50 values. In these assays, based on the % maximum stimulation as compared to the standard agonist quinpirole (100%) the compounds were classified into following categories: ≧90% full agonist; 70-90% partial to full agonist; <70% partial agonist; 0-20% potential antagonist.

human D2-long dopamine receptor, sequence (P14416 whole entry): as the sequence (P14416 whole entry) above

Row | Compound | Ki [1] [µM] | Ki [2] [µM] | D2/D3 (D3 selectivity ratio, D2 Ki/D3 Ki) [2] | Emax at 10 µM (human D2 receptors; at 10 μM) [%] | IC50 (human D2 receptors) [µM] | D3 Cyclase % Inhibition Normalized [3] [%] | Emax at 10 µM (D3R) [%] | IC50 (D3R) [µM] | D2 Antagonist Imax (human D2 receptors; at 10 μM, inhibition of quinpirole stimulation of mitogenesis) [% at 10 μM] | D3 Antagonist Imax (D3R) [%]
1 | CC(C)(C)c1nc(N2CCN(CCCCNC(=O)c3cn4ccncc4n3)CC2)cc(C(F)(F)F)n1 [Compound 115, N-(4-(4-(2-(tert-Butyl)-6-(trifluoromethyl)pyrimidin-4-yl)piperazin-1-yl)butyl)imidazo[1,2-a]pyrazine-2-carboxamide] | 0.45 | 0.008 ± 0.0016 | 56 | < 20 | 0.42 ± 0.12 | 37.8 ± 5.4 | < 20 | 0.245 ± 0.033 | 96.6 | 94.7
2 | O=C(NCCCCN1CCN(c2ccnc3ccccc23)CC1)c1cn2ccccc2n1 [Compound 117, N-(4-(4-(Quinolin-4-yl)piperazin-1-yl)butyl)imidazo[1,2-a]pyridine-2-carboxamide] | 0.572 | 0.0205 ± 0.0035 | 28 | – | – | – | < 20 | 0.12 ± 0.022 | – | 97.2
3 | CC(C)(C)c1nc(N2CCN(CCCCNC(=O)C3CCC(c4ccccc4)CC3)CC2)cc(C(F)(F)F)n1 (stereo not drawn) [Compound 103, N-(4-(4-(2-(tert-Butyl)-6-(trifluoromethyl)pyrimidin-4-yl)piperazin-1-yl)butyl)-4-phenylcyclohexanecarboxamide] | – | – | – | – | – | 51.6 ± 13.4 | – | – | – | –
4 | CC(C)(C)c1nc(N2CCN(CCCCNC(=O)c3cn4cccnc4n3)CC2)cc(C(F)(F)F)n1 [Compound 114, N-(4-(4-(2-(tert-Butyl)-6-(trifluoromethyl)pyrimidin-4-yl)piperazin-1-yl)butyl)imidazo[1,2-a]pyrimidine-2-carboxamide] | 0.435 ± 0.0434 | 0.0118 ± 0.0011 | 37 | < 1 | 0.205 ± 0.048 | – | 14 | 0.051 ± 0.021 | – | –
5 | CC(C)(C)c1nc(N2CCN(CCCCNC(=O)c3cn4nc(Cl)ccc4n3)CC2)cc(C(F)(F)F)n1 [Compound 116, N-(4-(4-(2-(tert-Butyl)-6-(trifluoromethyl)pyrimidin-4-yl)piperazin-1-yl)butyl)-6-chloroimidazo[1,2-b]pyridazine-2-carboxamide] | 0.655 ± 0.0806 | – | – | < 1 | 1.16 ± 0.11 | 31.5 ± 7.0 | < 1 | – | – | –
6 | CC(C)(C)c1nc(N2CCN(CCCCNC(=O)c3cn4ccccc4n3)CC2)c2ccccc2n1 [Compound 123, N-(4-(4-(2-(tert-Butyl)quinazolin-4-yl)piperazin-1-yl)butyl)imidazo[1,2-a]pyridine-2-carboxamide] | 1.45 ± 0.275 | 0.0782 ± 0.0192 | – | – | – | – | – | – | – | –

More lines, main results first:

Row | Ki [1] [µM] | Ki [2] [µM] | D2/D3 (D3 selectivity ratio, D2 Ki/D3 Ki) [2] | Emax at 10 µM (human D2 receptors; at 10 μM) [%] | IC50 (human D2 receptors) [µM] | D3 Cyclase % Inhibition Normalized [3] [%] | Emax at 10 µM (D3R) [%] | IC50 (D3R) [µM] | Compound | D2 Antagonist Imax (human D2 receptors; at 10 μM, inhibition of quinpirole stimulation of mitogenesis) [% at 10 μM] | D3 Antagonist Imax (D3R) [%]
7 | 12.9 ± 2.51 | 0.0292 ± 0.0053 | 442 | – | – | 26.4 ± 4.6 | – | – | Cc1nc(N2CCN(CCCCNC(=O)N3CCN(c4ccccc4)CC3)CC2)cc(C(C)(C)C)n1 [Compound 6, N-(4-(4-(6-(tert-Butyl)-2-methylpyrimidin-4-yl)piperazin-1-yl)butyl)-4-phenylpiperazine-1-carboxamide] | – | –
8 | 1.18 ± 0.265 | 0.0299 ± 0.0056 | 39 | – | – | – | – | – | Cc1cccc(N2CCN(C(=O)NCCCCN3CCN(c4cc(C(F)(F)F)nc(C(C)(C)C)n4)CC3)CC2)c1C [Compound 24, N-(4-(4-(2-(tert-Butyl)-6-(trifluoromethyl)pyrimidin-4-yl)piperazin-1-yl)butyl)-4-(2,3-dimethylphenyl)piperazine-1-carboxamide] | – | –
9 | 7.25 ± 0.754 | 0.299 ± 0.0378 | 24 | – | – | – | – | – | O=C(NCCCCN1CCN(c2cc(C(F)(F)F)nc3ccccc23)CC1)N1CCN(c2ccccc2)CC1 [Compound 99, 4-Phenyl-N-(4-(4-(2-(trifluoromethyl)quinolin-4-yl)piperazin-1-yl)butyl)piperazine-1-carboxamide] | – | –
10 | 0.0974 ± 0.0217 | 0.0026 ± 0.0003 | 38 | – | – | – | – | – | CC(C)(C)c1nc(N2CCN(CCCCNC(=O)N3CCN(c4ccncc4)CC3)CC2)cc(C(F)(F)F)n1 [Compound 31, N-(4-(4-(2-(tert-Butyl)-6-(trifluoromethyl)pyrimidin-4-yl)piperazin-1-yl)butyl)-4-(pyridin-4-yl)piperazine-1-carboxamide] | – | –
11 | 0.337 ± 0.0678 | 0.0151 ± 0.0042 | 22 | – | – | – | – | – | CC(C)(C)c1cc(N2CCN(CCCCNC(=O)N3CCN(c4ccccc4)CC3)CC2)nc(C(C)(C)C)n1 [Compound 10, N-(4-(4-(2,6-Di-tert-butylpyrimidin-4-yl)piperazin-1-yl)butyl)-4-phenylpiperazine-1-carboxamide] | – | –
12 | 0.507 ± 0.0166 | 0.0442 ± 0.0082 | 11 | – | – | – | – | – | CC(C)(C)c1nc(N2CCN(CCCCNC(=O)N3CCCN(c4ccccc4)CC3)CC2)cc(C(F)(F)F)n1 [Compound 81, N-(4-(4-(2-(tert-Butyl)-6-(trifluoromethyl)pyrimidin-4-yl)piperazin-1-yl)butyl)-4-phenyl-1,4-diazepane-1-carboxamide] | – | –
13 | 4.04 ± 0.965 | 0.0431 ± 0.0048 | 94 | – | – | 61.9 ± 6.4 | – | – | CC(C)(C)c1nc(N2CCN(CCCCNC(=O)N3CCN(c4ccccc4)CC3)CC2)c2ccccc2n1 [Compound 13, N-(4-(4-(2-(tert-Butyl)quinazolin-4-yl)piperazin-1-yl)butyl)-4-phenylpiperazine-1-carboxamide] | – | –
